Test results: patent US9174980B2, “Heterocyclic compounds as inhibitors of leukotriene production” (Boehringer Ingelheim International GmbH, priority 2012, dated 2015)

Legend:
[1] = system: synthesis of LTB4 in human whole blood; assay: Human whole blood assay (calcimycin-stimulated LTB4 synthesis); assay type: cell-based; settings: Homo sapiens; read-out: Human Whole Blood LTB4 Assay for FLAP (IC50 nM)
How it was run: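 Steps: compound plus heparinized human whole blood, 15 min at 37° C; add calcimycin to 20 μM final; incubate another 30 min at 37° C; centrifuge at low speed and collect plasma; measure LTB4 with a homogeneous time-resolved fluorescence immunoassay.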

[2] = target: T1, recombinant human FLAP protein (Homo sapiens, UniProt P20292); assay: FLAP binding assay (Scintillation Proximity Assay, displacement of [125I]L-691,831); settings: read-out: Human FLAP SPA Binding (IC50 nM)
T1 construct: made in house; host or cells: Sf9 insect cells (membrane fraction, 100,000 x g pellet)
T1 sequence (P20292 1-161): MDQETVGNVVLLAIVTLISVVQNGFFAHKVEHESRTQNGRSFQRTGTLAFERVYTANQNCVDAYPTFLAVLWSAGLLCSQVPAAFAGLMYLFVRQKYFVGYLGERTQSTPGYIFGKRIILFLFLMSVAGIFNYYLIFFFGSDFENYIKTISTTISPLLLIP
How it was run: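 Scintillation proximity displacement format: 0.08 nM iodinated MK-591 analog [125I]L-691,831 competes with test compound for human FLAP in sf9 insect-cell membranes (5 μg/well, WGA beads), 2 h with shaking, pH 7.5 Tris buffer. 10 μM cold L-691,831 defines non-specific binding.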

| SMILES | IC50 [1] [nM] | IC50 [2] [nM] |
| --- | --- | --- |
| Nc1ncc(-c2ccc(C3(c4ncc(-c5cn[nH]c5)s4)CCC3)cc2)cn1 [Example 178, 5-(4-{1-[5-(1H-pyrazol-4-yl)-1,3-thiazol-2-yl]cyclobutyl}phenyl)pyrimidin-2-amine] | 81 | 2.9 |
| COC(=O)c1cc(-c2ccc(F)nc2)c(C2(c3ccc(-c4cnc(N)nc4)cc3)CCC2)[nH]1 [Example 179, methyl 5-{1-[4-(2-aminopyrimidin-5-yl)phenyl]cyclobutyl}-4-(6-fluoropyridin-3-yl)-1H-pyrrole-2-carboxylate] | 4400 | 200 |
| CN(C)C(=O)Cn1cc(-c2cnc(C3(c4ccc(-c5cnc(N)nc5)cc4)CCC3)s2)cn1 [Example 180, 2-[4-(2-{1-[4-(2-aminopyrimidin-5-yl)phenyl]cyclobutyl}-1,3-thiazol-5-yl)-1H-pyrazol-1-yl]-N,N-dimethylacetamide] | 270 | 8.9 |
| CN(C)CCn1cc(-c2cnc(C3(c4ccc(-c5cnc(N)nc5)cc4)CCC3)s2)cn1 [Example 181, 5-{4-[1-(5-{1-[2-(dimethylamino)ethyl]-1H-pyrazol-4-yl}-1,3-thiazol-2-yl)cyclobutyl]phenyl}pyrimidin-2-amine] | 110 | 6.1 |
| COC(=O)c1cc(-c2cnn(C)c2)c(C2(c3ccc(-c4cnc(N)nc4)cc3)CCC2)n1C [Example 182, methyl 5-{1-[4-(2-aminopyrimidin-5-yl)phenyl]cyclobutyl}-1-methyl-4-(1-methyl-1H-pyrazol-4-yl)-1H-pyrrole-2-carboxylate] | 1400 | 38 |
| CN(C)C(=O)Cn1cc(-c2cc(C(C)(c3ccc(-c4cnc(N)nc4)cc3)C3CC3)no2)cn1 (stereo not drawn) [Example 183, 2-[4-(3-{1-[4-(2-aminopyrimidin-5-yl)phenyl]-1-cyclopropylethyl}-1,2-oxazol-5-yl)-1H-pyrazol-1-yl]-N,N-dimethylacetamide] | 200 | 9 |
| CC(C)(O)Cn1cc(-c2cc(C(C)(c3ccc(-c4cnc(N)nc4)cc3)C3CC3)no2)cn1 (stereo not drawn) [Example 184, 1-[4-(3-{1-[4-(2-aminopyrimidin-5-yl)phenyl]-1-cyclopropylethyl}-1,2-oxazol-5-yl)-1H-pyrazol-1-yl]-2-methylpropan-2-ol] | 97 | 8.4 |
| Cn1cc(-c2coc([C@@](C)(c3ccc(-c4cnc(N)nc4)cc3)C3CC3)n2)cn1 [Example 185, 5-[4-[(1R)-1-cyclopropyl-1-[4-(1-methylpyrazol-4-yl)oxazol-2-yl]ethyl]phenyl]pyrimidin-2-amine] | 54 | 3.3 |
| Cn1cc(-c2coc([C@](C)(c3ccc(-c4cnc(N)nc4)cc3)C3CC3)n2)cn1 [Example 186, 5-[4-[(1S)-1-cyclopropyl-1-[4-(1-methylpyrazol-4-yl)oxazol-2-yl]ethyl]phenyl]pyrimidin-2-amine] | 2000 | 87 |
| CN(C)CCn1cc(-c2cc(C(C)(c3ccc(-c4cnc(N)nc4)cc3)C3CC3)no2)cn1 (stereo not drawn) [Example 187, 5-{4-[1-cyclopropyl-1-(5-{1-[2-(dimethylamino)ethyl]-1H-pyrazol-4-yl}-1,2-oxazol-3-yl)ethyl]phenyl}pyrimidin-2-amine] | 67 | 9.9 |
| Cn1cc(-c2c(C3(c4ccc(-c5cnc(N)nc5)cc4)CCC3)c3ccccc3n2C(=O)OC(C)(C)C)cn1 [Example 188, tert-butyl 3-{1-[4-(2-aminopyrimidin-5-yl)phenyl]cyclobutyl}-2-(1-methyl-1H-pyrazol-4-yl)-1H-indole-1-carboxylate] | > 5000 | 270 |
| Cn1cc(-c2[nH]c3ccccc3c2C2(c3ccc(-c4cnc(N)nc4)cc3)CCC2)cn1 [Example 189] | 280 | 5.3 |
| Cn1cc(-c2cnc(C3(c4ccc(-c5cnc(N)nc5)cc4)CCC3)s2)cn1 [Example 190, 5-(4-{1-[5-(1-methyl-1H-pyrazol-4-yl)-1,3-thiazol-2-yl]cyclobutyl}phenyl)pyrimidin-2-amine] | 80 | 4.9 |
| CC(C)[C@](C)(c1ccc(-c2cnc(N)nc2)nc1)c1cc(-c2cnn(C)c2)on1 [Example 191, 5-(5-{(2R)-3-methyl-2-[5-(1-methyl-1H-pyrazol-4-yl)-1,2-oxazol-3-yl]butan-2-yl}pyridin-2-yl)pyrimidin-2-amine] | 56 | 7.5 |
| CC(C)[C@@](C)(c1ccc(-c2cnc(N)nc2)nc1)c1cc(-c2cnn(C)c2)on1 [Example 192, 5-(5-{(2S)-3-methyl-2-[5-(1-methyl-1H-pyrazol-4-yl)-1,2-oxazol-3-yl]butan-2-yl}pyridin-2-yl)pyrimidin-2-amine] | 1900 | 210 |

Results, then the molecule that gave them:

| IC50 [1] [nM] | IC50 [2] [nM] | SMILES |
| --- | --- | --- |
| 450 | 7.9 | COCCNC(=O)c1[nH]c2ccccc2c1C1(c2ccc(-c3cnc(N)nc3)cc2)CCC1 [Example 193] |
| 560 | 40 | CN(C)C(=O)Cn1cc(-c2coc(C(C)(c3ccc(-c4cnc(N)nc4)cc3)C3CC3)n2)cn1 (stereo not drawn) [Example 194, 2-[4-(2-{1-[4-(2-aminopyrimidin-5-yl)phenyl]-1-cyclopropylethyl}-1,3-oxazol-4-yl)-1H-pyrazol-1-yl]-N-dimethylacetamide] |
| 280 | 18 | CN(C)C(=O)Cn1cc(-c2coc([C@@](C)(c3ccc(-c4cnc(N)nc4)cc3)C3CC3)n2)cn1 [Example 195, 2-[4-(2-{(1R)-1-[4-(2-aminopyrimidin-5-yl)phenyl]-1-cyclopropylethyl}-1,3-oxazol-4-yl)-1H-pyrazol-1-yl]-N,N-dimethylacetamide] |
| 2000 | 380 | CN(C)C(=O)Cn1cc(-c2coc([C@](C)(c3ccc(-c4cnc(N)nc4)cc3)C3CC3)n2)cn1 [Example 196, 2-[4-(2-{(1S)-1-[4-(2-aminopyrimidin-5-yl)phenyl]-1-cyclopropylethyl}-1,3-oxazol-4-yl)-1H-pyrazol-1-yl]-N,N-dimethylacetamide] |
| 93 | 5.3 | CN(C)C(=O)Cn1cc(-c2cc([C@@](C)(c3ccc(-c4cnc(N)nc4)cc3)C3CC3)no2)cn1 [Example 197, 2-[4-(3-{(1R)-1-[4-(2-aminopyrimidin-5-yl)phenyl]-1-cyclopropylethyl}-1,2-oxazol-5-yl)-1H-pyrazol-1-yl]-N,N-dimethylacetamide] |
| 1600 | 350 | CN(C)C(=O)Cn1cc(-c2cc([C@](C)(c3ccc(-c4cnc(N)nc4)cc3)C3CC3)no2)cn1 [Example 198, 2-[4-(3-{(1S)-1-[4-(2-aminopyrimidin-5-yl)phenyl]-1-cyclopropylethyl}-1,2-oxazol-5-yl)-1H-pyrazol-1-yl]-N,N-dimethylacetamide] |
| 590 | 230 | Cn1cc(-c2cc(C(C)(c3ccc(-c4cnc(N)nc4)nc3)C3CC3)no2)cn1 (stereo not drawn) [Example 199, 5-(5-{1-Cyclopropyl-1-[5-(1-methyl-1H-pyrazol-4-yl)-isoxazol-3-yl]-ethyl}-pyridin-2-yl)-pyrimidin-2-ylamine] |
| 450 | 140 | Cn1cc(-c2cc([C@@](C)(c3ccc(-c4cnc(N)nc4)nc3)C3CC3)no2)cn1 [Example 200] |
| 3500 | > 2000 | Cn1cc(-c2cc([C@](C)(c3ccc(-c4cnc(N)nc4)nc3)C3CC3)no2)cn1 [Example 201, 5-(5-{(S)-1-Cyclopropyl-1-[5-(1-methyl-1H-pyrazol-4-yl)-isoxazol-3-yl]-ethyl}-pyridin-2-yl)-pyrimidin-2-ylamine] |
| 230 | 69 | CC(C)(O)Cn1cc(-c2coc(C(C)(c3ccc(-c4cnc(N)nc4)cc3)C3CC3)n2)cn1 (stereo not drawn) [Example 202, 1-[4-(2-{1-[4-(2-Amino-pyrimidin-5-yl)-phenyl]-1-cyclopropyl-ethyl}-oxazol-4-yl)-pyrazol-1-yl]-2-methyl-propan-2-ol] |
| 190 | 36 | CC(C)(O)Cn1cc(-c2coc([C@@](C)(c3ccc(-c4cnc(N)nc4)cc3)C3CC3)n2)cn1 [Example 203, 1-[4-(2-{(R)-1-[4-(2-Amino-pyrimidin-5-yl)-phenyl]-1-cyclopropyl-ethyl}-oxazol-4-yl)-pyrazol-1-yl]-2-methyl-propan-2-ol] |
| 1500 | 560 | CC(C)(O)Cn1cc(-c2coc([C@](C)(c3ccc(-c4cnc(N)nc4)cc3)C3CC3)n2)cn1 [Example 204, 1-[4-(2-{(S)-1-[4-(2-Amino-pyrimidin-5-yl)-phenyl]-1-cyclopropyl-ethyl}-oxazol-4-yl)-pyrazol-1-yl]-2-methyl-propan-2-ol] |
| 1600 | 1500 | CN(C)C(=O)Cn1cc(-c2coc(C(C)(c3ccc(-c4cnc(N)nc4)nc3)C3CC3)n2)cn1 (stereo not drawn) [Example 205, 2-[4-(2-{1-[6-(2-Amino-pyrimidin-5-yl)-pyridin-3-yl]-1-cyclopropyl-ethyl}-oxazol-4-yl)-pyrazol-1-yl]-N,N-dimethyl-acetamide] |
| 930 | 180 | Cn1cc(-c2coc(C(C)(c3ccc(-c4cnc(N)nc4)nc3)C3CC3)n2)cn1 (stereo not drawn) [Example 206, 5-(5-{1-Cyclopropyl-1-[4-(1-methyl-1H-pyrazol-4-yl)-oxazol-2-yl]-ethyl}-pyridin-2-yl)-pyrimidin-2-ylamine] |
| 220 | 110 | Cn1cc(-c2coc([C@@](C)(c3ccc(-c4cnc(N)nc4)nc3)C3CC3)n2)cn1 [Example 207, 5-(5-{(R)-1-Cyclopropyl-1-[4-(1-methyl-1H-pyrazol-4-yl)-oxazol-2-yl]-ethyl}-pyridin-2-yl)-pyrimidin-2-ylamine] |
